Reference: patent publication US7064128B2, “Preferentially substituted calcium channel blockers” (NeuroMed Technologies, Inc., priority 1998, dated 2006)
Like-named read-outs stand apart in the source and are kept apart here.

Key:
Assay type in all cases: cell-based
[1] = biological target: T1, N-type calcium channels (α1B+α2δ+β1b cDNA subunits) (Rattus norvegicus, UniProt Q02294); assay: Whole cell patch clamp, tonic and frequency dependent block, N-type channels in HEK 293 (Example 5); settings: for % Block (100 nM) 0.03 Hz: 0.03 Hz (tonic block); for % Block (100 nM) 0.2 Hz: 0.2 Hz (frequency dependent block)
T1 construct: expressed in transfected cells
T1 sequence (Q02294 whole entry): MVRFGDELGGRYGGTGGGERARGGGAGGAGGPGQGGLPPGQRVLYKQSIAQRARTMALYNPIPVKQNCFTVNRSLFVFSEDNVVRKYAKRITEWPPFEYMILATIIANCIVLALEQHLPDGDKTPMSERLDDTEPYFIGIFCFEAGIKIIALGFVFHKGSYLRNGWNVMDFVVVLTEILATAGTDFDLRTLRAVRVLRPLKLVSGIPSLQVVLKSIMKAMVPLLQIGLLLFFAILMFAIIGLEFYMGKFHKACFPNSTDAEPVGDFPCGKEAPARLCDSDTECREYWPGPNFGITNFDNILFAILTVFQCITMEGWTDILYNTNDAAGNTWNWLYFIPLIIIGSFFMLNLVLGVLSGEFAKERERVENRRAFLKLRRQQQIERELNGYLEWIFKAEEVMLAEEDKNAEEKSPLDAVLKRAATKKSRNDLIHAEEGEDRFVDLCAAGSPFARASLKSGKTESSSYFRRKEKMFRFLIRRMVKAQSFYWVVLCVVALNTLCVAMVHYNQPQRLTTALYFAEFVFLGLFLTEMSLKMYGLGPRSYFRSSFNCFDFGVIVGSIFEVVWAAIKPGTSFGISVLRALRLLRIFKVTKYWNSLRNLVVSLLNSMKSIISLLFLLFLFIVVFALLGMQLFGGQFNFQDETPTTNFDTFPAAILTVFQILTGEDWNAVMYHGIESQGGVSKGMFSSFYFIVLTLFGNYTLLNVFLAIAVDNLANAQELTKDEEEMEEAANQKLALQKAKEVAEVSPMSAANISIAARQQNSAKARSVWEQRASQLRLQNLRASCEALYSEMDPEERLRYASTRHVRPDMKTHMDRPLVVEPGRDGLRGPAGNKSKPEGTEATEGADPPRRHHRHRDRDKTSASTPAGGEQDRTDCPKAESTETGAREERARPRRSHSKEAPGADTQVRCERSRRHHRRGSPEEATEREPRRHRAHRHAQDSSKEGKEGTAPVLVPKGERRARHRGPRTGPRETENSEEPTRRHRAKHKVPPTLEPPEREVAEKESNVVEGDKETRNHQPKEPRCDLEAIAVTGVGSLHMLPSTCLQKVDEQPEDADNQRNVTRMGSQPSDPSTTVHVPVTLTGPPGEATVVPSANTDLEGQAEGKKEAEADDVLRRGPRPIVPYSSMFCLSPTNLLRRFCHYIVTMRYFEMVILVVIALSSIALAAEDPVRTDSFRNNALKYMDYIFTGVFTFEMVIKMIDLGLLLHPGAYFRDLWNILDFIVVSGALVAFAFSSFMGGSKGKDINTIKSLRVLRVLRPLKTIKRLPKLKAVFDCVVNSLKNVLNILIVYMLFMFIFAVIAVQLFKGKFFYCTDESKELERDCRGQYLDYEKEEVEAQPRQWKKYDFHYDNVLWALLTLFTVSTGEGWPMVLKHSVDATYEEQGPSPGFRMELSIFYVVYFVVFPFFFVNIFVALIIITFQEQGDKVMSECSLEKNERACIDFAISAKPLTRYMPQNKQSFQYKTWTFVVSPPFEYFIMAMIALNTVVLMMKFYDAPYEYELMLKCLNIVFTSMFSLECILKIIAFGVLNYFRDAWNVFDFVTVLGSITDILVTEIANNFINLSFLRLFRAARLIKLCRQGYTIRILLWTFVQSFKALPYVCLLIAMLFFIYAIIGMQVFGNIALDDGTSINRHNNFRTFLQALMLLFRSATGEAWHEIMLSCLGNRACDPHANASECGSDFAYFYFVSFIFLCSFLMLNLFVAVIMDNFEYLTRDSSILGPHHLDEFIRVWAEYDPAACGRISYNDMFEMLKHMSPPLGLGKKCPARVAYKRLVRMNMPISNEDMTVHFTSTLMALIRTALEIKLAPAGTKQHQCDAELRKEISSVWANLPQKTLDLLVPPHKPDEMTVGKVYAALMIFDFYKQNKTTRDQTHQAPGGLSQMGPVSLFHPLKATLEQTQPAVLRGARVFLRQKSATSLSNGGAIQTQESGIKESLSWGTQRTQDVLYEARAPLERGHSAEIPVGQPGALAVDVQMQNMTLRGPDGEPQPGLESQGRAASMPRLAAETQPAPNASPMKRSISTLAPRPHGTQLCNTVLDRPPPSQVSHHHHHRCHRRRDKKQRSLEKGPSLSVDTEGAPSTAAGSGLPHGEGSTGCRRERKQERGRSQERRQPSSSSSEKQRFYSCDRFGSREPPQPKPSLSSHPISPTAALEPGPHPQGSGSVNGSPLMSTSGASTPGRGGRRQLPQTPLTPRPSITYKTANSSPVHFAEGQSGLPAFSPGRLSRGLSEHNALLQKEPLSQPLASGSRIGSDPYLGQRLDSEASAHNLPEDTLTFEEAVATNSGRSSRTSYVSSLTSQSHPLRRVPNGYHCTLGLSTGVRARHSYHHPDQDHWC
T1 sequence (P54290 25-944 partner limits assumed): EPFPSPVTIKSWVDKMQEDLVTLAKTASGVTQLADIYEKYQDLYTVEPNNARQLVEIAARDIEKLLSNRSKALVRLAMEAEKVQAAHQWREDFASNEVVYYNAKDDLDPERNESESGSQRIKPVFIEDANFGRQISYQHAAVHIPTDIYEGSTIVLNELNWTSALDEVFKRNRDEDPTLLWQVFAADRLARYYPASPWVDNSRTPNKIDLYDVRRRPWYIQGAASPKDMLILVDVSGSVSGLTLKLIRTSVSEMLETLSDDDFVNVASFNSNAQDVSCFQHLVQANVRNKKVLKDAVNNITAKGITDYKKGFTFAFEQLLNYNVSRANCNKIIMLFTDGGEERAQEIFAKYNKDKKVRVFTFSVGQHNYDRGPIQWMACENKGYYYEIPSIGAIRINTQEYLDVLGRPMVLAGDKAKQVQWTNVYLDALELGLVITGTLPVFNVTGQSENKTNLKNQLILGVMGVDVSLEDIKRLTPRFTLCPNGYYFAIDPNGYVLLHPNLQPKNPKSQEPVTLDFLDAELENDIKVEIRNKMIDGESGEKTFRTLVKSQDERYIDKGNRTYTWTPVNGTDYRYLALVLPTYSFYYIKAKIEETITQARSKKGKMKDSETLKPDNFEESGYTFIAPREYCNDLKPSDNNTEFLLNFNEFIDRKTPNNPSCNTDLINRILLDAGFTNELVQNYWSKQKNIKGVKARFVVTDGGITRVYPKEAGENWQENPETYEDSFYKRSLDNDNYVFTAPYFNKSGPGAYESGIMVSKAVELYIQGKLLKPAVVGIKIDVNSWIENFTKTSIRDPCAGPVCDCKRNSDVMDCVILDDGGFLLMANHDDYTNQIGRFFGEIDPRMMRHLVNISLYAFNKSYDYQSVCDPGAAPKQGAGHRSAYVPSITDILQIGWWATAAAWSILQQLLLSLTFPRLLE
T1 sequence (P54290 945-1091 partner limits assumed): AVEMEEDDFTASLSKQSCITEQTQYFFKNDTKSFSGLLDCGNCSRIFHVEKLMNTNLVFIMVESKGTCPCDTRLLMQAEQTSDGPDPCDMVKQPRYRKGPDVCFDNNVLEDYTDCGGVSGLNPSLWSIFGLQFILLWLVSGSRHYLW
T1 sequence (P54283 whole entry partner): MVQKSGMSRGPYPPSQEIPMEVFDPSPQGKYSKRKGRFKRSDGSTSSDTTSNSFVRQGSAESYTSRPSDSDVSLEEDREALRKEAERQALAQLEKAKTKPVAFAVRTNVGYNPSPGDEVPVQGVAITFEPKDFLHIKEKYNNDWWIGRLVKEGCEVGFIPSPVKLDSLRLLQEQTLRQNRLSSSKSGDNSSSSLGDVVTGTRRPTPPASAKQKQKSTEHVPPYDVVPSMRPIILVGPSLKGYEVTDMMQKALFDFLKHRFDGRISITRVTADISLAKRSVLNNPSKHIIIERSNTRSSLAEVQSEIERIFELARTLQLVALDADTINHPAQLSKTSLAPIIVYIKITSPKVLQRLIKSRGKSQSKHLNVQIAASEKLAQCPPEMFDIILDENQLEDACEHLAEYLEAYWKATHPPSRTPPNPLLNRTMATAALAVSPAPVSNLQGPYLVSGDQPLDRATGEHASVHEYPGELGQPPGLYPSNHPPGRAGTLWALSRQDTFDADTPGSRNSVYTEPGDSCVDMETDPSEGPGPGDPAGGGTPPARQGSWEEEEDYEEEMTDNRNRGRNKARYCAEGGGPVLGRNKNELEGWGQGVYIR
Experimental: (§1) N-type calcium channel blocking activity was assayed in human embryonic kidney cells, HEK 293, stably transfected with the rat brain N-type calcium channel subunits (α1B+α2δ+β1b cDNA subunits). Alternatively, N-type calcium channels (α1B+α2δ+β1b cDNA subunits), L-type channels (α1C+α2δ+β1b cDNA subunits) and P/Q-type channels (α1A+α2δ+β1b cDNA subunits) were transiently expressed in HEK 293 cells. Briefly, cells were cultured in Dulbecco's modified eagle medium (DMEM) supplemented with 10% fetal bovine serum, 200 U/ml penicillin and 0.2 mg/ml streptomycin at 37° C. with 5% CO2. At 85% confluency cells were split with 0.25% trypsin/1 mM EDTA and plated at 10% confluency on glass coverslips. At 12 hours the medium was replaced and the cells transiently transfected using a standard calcium phosphate protocol and the appropriate calcium channel cDNAs. Fresh DMEM was supplied and the cells transferred to 28° C./5% CO2. Cells were incubated for 1 to 2 days to whole cell recording.
(§2) Whole cell patch clamp experiments were performed using an Axopatch 200B amplifier (Axon Instruments, Burlingame, Calif.) linked to a personal computer equipped with pCLAMP software. The external and internal recording solutions contained, respectively, 5 mM BaCl2, 1 mM MgCl2, 10 mM HEPES, 40 mM TEACl, 10 mM glucose, 87.5 mM CsCl (pH 7.2) and 108 mM CsMS, 4 mM MgCl2, 9 mM EGTA, 9 mM HEPES (pH 7.2). Currents were typically elicited from a holding potential of −80 mV to +10 mV using Clampex software (Axon Instruments). Typically, currents were first elicited with low frequency stimulation (0.03 Hz) and allowed to stabilize prior to application of the compounds. The compounds were then applied during the low frequency pulse trains for two to three minutes to assess tonic block, and subsequently the pulse frequency was increased to 0.2 Hz to assess frequency dependent block. Data were analyzed using Clampfit (Axon Instruments) and SigmaPlot 4.0 (Jandel Scientific).

[2] = test system: P/Q-type channels (α1A+α2δ+β1b cDNA subunits); assay: Whole cell patch clamp, tonic and frequency dependent block, P/Q-type channels in HEK 293 (Example 5); settings: in general
Experimental: as §1, §2
(§3) Tables 2 and 3 show the results of similar experiments conducted with P/Q-type and L-type channels expressed in HEK 293 cells.

[3] = biological target: P/Q-type channels (α1A+α2δ+β1b cDNA subunits) (UniProt P54282); assay: as above
Experimental: as §1, §2, §3

[4] = biological target: T2, L-type channels (α1C+α2δ+β1b cDNA subunits) (UniProt P22002); assay: Whole cell patch clamp, tonic and frequency dependent block, L-type channels in HEK 293 (Example 5)
T2 construct: other: α1C (L-type), 100 nM, 0.03 Hz; other: α1C (L-type), 100 nM, 0.2 Hz; other: α1C (L-type), 0.03 Hz; other: α1C (L-type), 0.2 Hz
Experimental: as §1, §2, §3

[5] = test system: L-type channels (α1C+α2δ+β1b cDNA subunits); assay: as above; settings: in general
Experimental: as §1, §2, §3

[6] = Table 4 summary, 0.2 Hz, N-type, unit not given in Table 4 (μM in Table 1), read-out: N (IC50 values)
[7] = α1B (N-type), 0.03 Hz, read-out: Estimated IC50 (μM) 0.03 Hz
[8] = α1B (N-type), 0.2 Hz, read-out: Estimated IC50 (μM) 0.2 Hz
[9] = Table 4 summary, 0.2 Hz, P/Q-type, unit not given in Table 4 (μM in Table 2), read-out: P/Q (IC50 values)
[10] = α1A (P/Q-type), 0.03 Hz, read-out: Estimated IC50 (μM) 0.03 Hz
[11] = α1A (P/Q-type), 0.2 Hz, read-out: Estimated IC50 (μM) 0.2 Hz
[12] = Table 4 summary, 0.2 Hz, L-type, unit not given in Table 4 (μM in Table 3), read-out: L (IC50 values)
[13] = α1C (L-type), 0.03 Hz, read-out: Estimated IC50 (μM) 0.03 Hz
[14] = α1C (L-type), 0.2 Hz, read-out: Estimated IC50 (μM) 0.2 Hz

| IC50 [1, 6] [µM] | % Block (100 nM) 0.03 Hz ([1]; α1B (N-type)) [%] | % Block (100 nM) 0.2 Hz ([1]; α1B (N-type)) [%] | IC50 [1, 7] [µM] | IC50 [1, 8] [µM] | IC50 [3, 9] [µM] | % Block (100 nM) 0.03 Hz ([3]; α1A (P/Q-type), 0.03 Hz) [%] | % Block (100 nM) 0.2 Hz ([3]; α1A (P/Q-type), 0.2 Hz) [%] | IC50 [3, 10] [µM] | IC50 [3, 11] [µM] | IC50 [4, 12] [µM] | % Block (100 nM) 0.03 Hz ([4]; α1C (L-type), 0.03 Hz) [%] | % Block (100 nM) 0.2 Hz ([4]; α1C (L-type), 0.2 Hz) [%] | IC50 [4, 13] [µM] | IC50 [4, 14] [µM] | SMILES | N-type channel inhibition at higher frequencies (in words) ([1]; 0.2 Hz) | IC50 values on P/Q-type channels compared with N-type (in words) [2] | IC50 values on L-type channels compared with N-type (in words) [5] |
| --- | --- | --- | --- | --- | --- | --- | --- | --- | --- | --- | --- | --- | --- | --- | --- | --- | --- | --- |
| 0.04 | 34 | 72 | 0.2 | 0.04 | 0.12 | 31 | 52 | 0.65 | 0.12 | 0.3 | 19 | 29 | 0.5 | 0.3 | O=C(CC(c1ccccc1)c1ccccc1)N1CCN(C(c2ccccc2)c2ccccc2)CC1 [39-1-B4] | most potent inhibitors at higher frequencies | higher than those exhibited with respect to N-type channels | higher than those exhibited with respect to N-type channels |
| 0.06 | 38 | 63 | 0.17 | 0.06 | 0.07 | 28 | 62 | 0.3 | 0.07 | 0.3 | 7 | 15 | 1.17 | 0.3 | O=C(CCCCC(c1ccccc1)c1ccccc1)N1CCC(NCC2CCCCC2)CC1 [JM-G-10] | most potent inhibitors at higher frequencies | higher than those exhibited with respect to N-type channels | higher than those exhibited with respect to N-type channels |
| 0.03 | 50 | 79 | 0.1 | 0.03 | 0.09 | 27 | 58 | 0.41 | 0.09 | 0.37 | 15 | 26 | 0.74 | 0.37 | COc1cc(CN2CCN(CCCCCC(c3ccc(F)cc3)c3ccc(F)cc3)CC2)cc(OC)c1OC [39-45-3] | most potent inhibitors at higher frequencies | higher than those exhibited with respect to N-type channels | higher than those exhibited with respect to N-type channels |
| 0.05 | 47 | 73 | 0.12 | 0.05 | 0.08 | 31 | 56 | 0.35 | 0.08 | 0.39 | 14 | 24 | 0.63 | 0.39 | O=C(CCCCC(c1ccccc1)c1ccccc1)N1CCN(C/C=C/c2ccccc2)CC1 [MC-34D] | most potent inhibitors at higher frequencies | higher than those exhibited with respect to N-type channels | higher than those exhibited with respect to N-type channels |
